Laboratory results from ChEMBL document CHEMBL1136863, “Identification and SAR of squarate inhibitors of mitogen activated protein kinase-activated protein kinase 2 (MK-2)” (Bioorg Med Chem, 2009).

Molecular target: Cytochrome P450 3A4 (Homo sapiens, UniProt P08684)
Test: Inhibition of CYP3A4
Assay type: ADME

Chain of Cytochrome P450 3A4 (P08684 whole entry): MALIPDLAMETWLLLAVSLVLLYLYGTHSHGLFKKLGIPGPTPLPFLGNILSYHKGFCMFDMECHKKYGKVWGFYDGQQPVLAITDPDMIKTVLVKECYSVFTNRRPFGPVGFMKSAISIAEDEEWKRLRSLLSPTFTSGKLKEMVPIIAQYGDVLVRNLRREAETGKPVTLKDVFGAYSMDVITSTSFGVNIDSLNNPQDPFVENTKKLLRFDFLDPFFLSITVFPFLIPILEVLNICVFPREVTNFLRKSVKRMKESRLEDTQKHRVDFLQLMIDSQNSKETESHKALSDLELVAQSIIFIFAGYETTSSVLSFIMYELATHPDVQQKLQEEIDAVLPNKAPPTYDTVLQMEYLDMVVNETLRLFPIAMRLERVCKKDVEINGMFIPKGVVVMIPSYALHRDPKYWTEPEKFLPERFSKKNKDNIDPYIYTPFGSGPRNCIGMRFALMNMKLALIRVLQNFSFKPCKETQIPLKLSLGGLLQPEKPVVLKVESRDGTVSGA

SMILES | IC50
NC(=O)C(Nc1c(Nc2ccncc2)c(=O)c1=O)c1ccccc1 (configuration not stated) | 8.6 µM
NC(=O)C(Nc1c(Nc2ccncc2)c(=O)c1=O)c1cccc(O)c1 (configuration not stated) | > 10 µM
C[C@@H](Nc1c(Nc2ccn[nH]2)c(=O)c1=O)c1ccccc1 | 40 µM
C[C@@H](Nc1c(Nc2ccncc2)c(=O)c1=O)c1ccccc1 | 1.3 µM

Molecular target: Cytochrome P450 2C9 (Homo sapiens, UniProt P11712)
Test: Inhibition of CYP2C9
Assay type: ADME

Chain of Cytochrome P450 2C9 (P11712 whole entry): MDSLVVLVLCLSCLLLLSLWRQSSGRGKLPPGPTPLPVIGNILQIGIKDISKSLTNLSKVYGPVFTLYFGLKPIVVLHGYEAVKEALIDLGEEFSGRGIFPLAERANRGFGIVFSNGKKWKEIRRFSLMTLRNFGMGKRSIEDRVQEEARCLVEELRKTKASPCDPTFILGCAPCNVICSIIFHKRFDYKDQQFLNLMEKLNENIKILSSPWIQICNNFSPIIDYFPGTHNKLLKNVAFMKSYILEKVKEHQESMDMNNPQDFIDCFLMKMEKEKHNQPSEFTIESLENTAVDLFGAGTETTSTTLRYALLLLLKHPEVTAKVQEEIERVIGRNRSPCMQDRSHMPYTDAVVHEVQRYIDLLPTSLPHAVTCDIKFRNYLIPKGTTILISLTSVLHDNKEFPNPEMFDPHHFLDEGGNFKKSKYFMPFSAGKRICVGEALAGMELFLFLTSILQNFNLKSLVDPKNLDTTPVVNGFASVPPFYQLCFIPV

SMILES | IC50
NC(=O)C(Nc1c(Nc2ccncc2)c(=O)c1=O)c1ccccc1 (configuration not stated) | 5.1 µM
NC(=O)C(Nc1c(Nc2ccncc2)c(=O)c1=O)c1cccc(O)c1 (configuration not stated) | 6.5 µM
C[C@@H](Nc1c(Nc2ccn[nH]2)c(=O)c1=O)c1ccccc1 | 12 µM
C[C@@H](Nc1c(Nc2ccncc2)c(=O)c1=O)c1ccccc1 | 0.6 µM

Molecular target: Cytochrome P450 2D6 (Homo sapiens, UniProt P10635)
Test: Inhibition of CYP2D6
Assay type: ADME

SMILES | IC50
NC(=O)C(Nc1c(Nc2ccncc2)c(=O)c1=O)c1ccccc1 (configuration not stated) | > 10 µM
NC(=O)C(Nc1c(Nc2ccncc2)c(=O)c1=O)c1cccc(O)c1 (configuration not stated) | > 10 µM
C[C@@H](Nc1c(Nc2ccncc2)c(=O)c1=O)c1ccccc1 | 3.3 µM

Molecular target: CYP3A4 (Homo sapiens, UniProt P08684)
Test: Inhibition of CYP3A4 at 3 uM
Assay type: ADME

Chain of CYP3A4 (P08684 whole entry): as the sequence (P08684 whole entry) above

SMILES | inhibition at 3 µM
C[C@@H](Nc1c(Nc2cccnc2)c(=O)c1=O)c1ccccc1 | 16%

Molecular target: CYP2C9 (Homo sapiens, UniProt P11712)
Test: Inhibition of CYP2C9 at 3 uM
Assay type: ADME

SMILES | inhibition at 3 µM
C[C@@H](Nc1c(Nc2cccnc2)c(=O)c1=O)c1ccccc1 | 1%

Molecular target: CYP2D6 (Homo sapiens, UniProt P10635)
Test: Inhibition of CYP2D6 at 3 uM
Assay type: ADME

SMILES | inhibition at 3 µM
C[C@@H](Nc1c(Nc2cccnc2)c(=O)c1=O)c1ccccc1 | 26%

Test system: THP-1
Test: Inhibition of LPS-stimulated TNFalpha production in human THP1 cells

SMILES | IC50
NC(=O)C(Nc1c(Nc2ccncc2)c(=O)c1=O)c1ccccc1 (configuration not stated) | > 40 µM
NC(=O)C(Nc1c(Nc2ccncc2)c(=O)c1=O)c1cccc(O)c1 (configuration not stated) | 17 µM
CC(Nc1c(Nc2ccncc2)c(=O)c1=O)c1cccc(O)c1 (configuration not stated) | 34 µM
C[C@@H](Nc1c(Nc2ccnc(Nc3ccncn3)c2)c(=O)c1=O)c1ccccc1 | 1.1 µM
C[C@@H](Nc1c(Nc2ccnc(-c3ccccc3F)c2)c(=O)c1=O)c1ccccc1 | 2.2 µM
C[C@@H](Nc1c(Nc2ccnc(-c3ccco3)c2)c(=O)c1=O)c1ccccc1 | 2.1 µM
C[C@@H](Nc1c(Nc2ccncc2)c(=O)c1=O)c1ccccc1 | 10.8 µM

Molecular target: Aurora kinase B (Homo sapiens, UniProt Q96GD4)
Test: Inhibition of Aurora B

SMILES | IC50
NC(=O)C(Nc1c(Nc2ccncc2)c(=O)c1=O)c1ccccc1 (configuration not stated) | 6 µM
NC(=O)C(Nc1c(Nc2ccncc2)c(=O)c1=O)c1cccc(O)c1 (configuration not stated) | 1.4 µM
C[C@@H](Nc1c(Nc2ccnc(-c3ccccc3F)c2)c(=O)c1=O)c1ccccc1 | > 50 µM
C[C@@H](Nc1c(Nc2ccnc(-c3ccsc3)c2)c(=O)c1=O)c1ccccc1 | 10.8 µM
C[C@@H](Nc1c(Nc2ccnc(-c3ccco3)c2)c(=O)c1=O)c1ccccc1 | 8.8 µM

Molecular target: Casein kinase I isoform gamma-1 (Homo sapiens, UniProt Q9HCP0)
Test: Inhibition of CK1-gamma1

Chain of Casein kinase I isoform gamma-1 (Q9HCP0 whole entry, canonical isoform): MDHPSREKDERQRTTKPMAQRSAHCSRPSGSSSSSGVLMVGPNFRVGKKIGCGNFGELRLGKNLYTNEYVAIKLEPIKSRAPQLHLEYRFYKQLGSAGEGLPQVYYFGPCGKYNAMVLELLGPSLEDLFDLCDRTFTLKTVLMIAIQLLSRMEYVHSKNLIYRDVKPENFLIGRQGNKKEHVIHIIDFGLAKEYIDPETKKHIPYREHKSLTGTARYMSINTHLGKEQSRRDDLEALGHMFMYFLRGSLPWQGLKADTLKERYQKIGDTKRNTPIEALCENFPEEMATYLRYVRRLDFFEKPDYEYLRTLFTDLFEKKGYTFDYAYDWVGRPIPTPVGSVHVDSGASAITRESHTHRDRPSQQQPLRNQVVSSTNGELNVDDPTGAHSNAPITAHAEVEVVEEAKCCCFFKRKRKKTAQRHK

SMILES | IC50
NC(=O)C(Nc1c(Nc2ccncc2)c(=O)c1=O)c1ccccc1 (configuration not stated) | 0.52 µM
NC(=O)C(Nc1c(Nc2ccncc2)c(=O)c1=O)c1cccc(O)c1 (configuration not stated) | 0.16 µM
C[C@@H](Nc1c(Nc2ccnc(-c3ccccc3F)c2)c(=O)c1=O)c1ccccc1 | > 50 µM
C[C@@H](Nc1c(Nc2ccnc(-c3ccsc3)c2)c(=O)c1=O)c1ccccc1 | 11.6 µM
C[C@@H](Nc1c(Nc2ccnc(-c3ccco3)c2)c(=O)c1=O)c1ccccc1 | 4.9 µM

Molecular target: Mitogen-activated protein kinase 1 (Homo sapiens, UniProt P28482)
Test: Inhibition of ERK2

Chain of Mitogen-activated protein kinase 1 (P28482 whole entry): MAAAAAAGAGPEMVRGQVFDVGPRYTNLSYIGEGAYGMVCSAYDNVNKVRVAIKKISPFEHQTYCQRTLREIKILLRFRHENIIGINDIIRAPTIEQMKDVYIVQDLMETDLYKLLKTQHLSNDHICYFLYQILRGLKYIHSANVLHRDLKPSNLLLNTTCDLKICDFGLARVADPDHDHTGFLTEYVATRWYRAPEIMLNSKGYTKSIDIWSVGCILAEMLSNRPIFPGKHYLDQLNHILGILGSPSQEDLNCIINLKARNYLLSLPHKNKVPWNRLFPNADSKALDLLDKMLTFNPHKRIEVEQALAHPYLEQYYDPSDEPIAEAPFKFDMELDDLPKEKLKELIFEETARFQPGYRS

SMILES | IC50
NC(=O)C(Nc1c(Nc2ccncc2)c(=O)c1=O)c1ccccc1 (configuration not stated) | 6.3 µM
NC(=O)C(Nc1c(Nc2ccncc2)c(=O)c1=O)c1cccc(O)c1 (configuration not stated) | 4.2 µM
C[C@@H](Nc1c(Nc2ccnc(-c3ccccc3F)c2)c(=O)c1=O)c1ccccc1 | > 50 µM
C[C@@H](Nc1c(Nc2ccnc(-c3ccsc3)c2)c(=O)c1=O)c1ccccc1 | > 50 µM
C[C@@H](Nc1c(Nc2ccnc(-c3ccco3)c2)c(=O)c1=O)c1ccccc1 | 35 µM

Molecular target: Tyrosine-protein kinase Fyn (Homo sapiens, UniProt P06241)
Test: Inhibition of FYN

Chain of Tyrosine-protein kinase Fyn (P06241 whole entry): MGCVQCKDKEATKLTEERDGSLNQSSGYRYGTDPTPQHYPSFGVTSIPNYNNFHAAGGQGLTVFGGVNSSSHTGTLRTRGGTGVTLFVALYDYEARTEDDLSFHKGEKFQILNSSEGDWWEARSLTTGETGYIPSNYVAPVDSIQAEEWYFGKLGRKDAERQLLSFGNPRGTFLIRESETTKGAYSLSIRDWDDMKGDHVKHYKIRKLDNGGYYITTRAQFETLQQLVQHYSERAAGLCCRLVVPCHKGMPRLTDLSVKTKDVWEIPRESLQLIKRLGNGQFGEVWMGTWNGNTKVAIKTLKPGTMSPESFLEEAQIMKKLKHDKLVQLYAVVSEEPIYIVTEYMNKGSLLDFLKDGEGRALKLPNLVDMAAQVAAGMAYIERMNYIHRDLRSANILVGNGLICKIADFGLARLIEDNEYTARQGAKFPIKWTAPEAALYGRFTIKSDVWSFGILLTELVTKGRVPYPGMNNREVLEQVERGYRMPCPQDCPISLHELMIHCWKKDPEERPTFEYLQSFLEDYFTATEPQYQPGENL

SMILES | IC50
NC(=O)C(Nc1c(Nc2ccncc2)c(=O)c1=O)c1ccccc1 (configuration not stated) | > 50 µM
NC(=O)C(Nc1c(Nc2ccncc2)c(=O)c1=O)c1cccc(O)c1 (configuration not stated) | > 50 µM
C[C@@H](Nc1c(Nc2ccnc(-c3ccccc3F)c2)c(=O)c1=O)c1ccccc1 | > 50 µM
C[C@@H](Nc1c(Nc2ccnc(-c3ccsc3)c2)c(=O)c1=O)c1ccccc1 | 15.3 µM
C[C@@H](Nc1c(Nc2ccnc(-c3ccco3)c2)c(=O)c1=O)c1ccccc1 | > 50 µM
C[C@@H](Nc1c(Nc2ccncc2)c(=O)c1=O)c1ccccc1 | > 50 µM

Molecular target: T1, Inhibitor of nuclear factor kappa-B kinase subunit alpha (Homo sapiens, UniProt O15111)
T1 sequence (O15111 whole entry): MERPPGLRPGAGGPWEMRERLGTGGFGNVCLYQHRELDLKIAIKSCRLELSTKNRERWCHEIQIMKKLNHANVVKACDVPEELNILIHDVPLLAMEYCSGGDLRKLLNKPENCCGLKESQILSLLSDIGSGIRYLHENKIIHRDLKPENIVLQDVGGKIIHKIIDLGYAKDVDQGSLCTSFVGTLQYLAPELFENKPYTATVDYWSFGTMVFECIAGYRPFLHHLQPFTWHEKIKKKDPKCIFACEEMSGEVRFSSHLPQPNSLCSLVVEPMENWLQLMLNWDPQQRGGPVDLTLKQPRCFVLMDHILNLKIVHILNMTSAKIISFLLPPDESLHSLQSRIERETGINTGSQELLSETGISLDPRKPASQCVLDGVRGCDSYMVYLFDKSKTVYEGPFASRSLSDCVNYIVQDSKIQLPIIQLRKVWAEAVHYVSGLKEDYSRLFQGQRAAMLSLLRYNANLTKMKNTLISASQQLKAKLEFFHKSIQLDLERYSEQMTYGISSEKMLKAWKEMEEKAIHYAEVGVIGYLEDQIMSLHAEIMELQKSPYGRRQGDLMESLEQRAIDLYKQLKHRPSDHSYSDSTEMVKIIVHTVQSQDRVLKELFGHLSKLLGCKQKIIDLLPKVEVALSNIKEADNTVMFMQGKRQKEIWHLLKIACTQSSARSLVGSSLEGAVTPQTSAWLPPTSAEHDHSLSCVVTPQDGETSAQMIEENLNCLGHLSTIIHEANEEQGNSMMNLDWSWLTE
Test: Inhibition of IKKalpha

SMILES | IC50
NC(=O)C(Nc1c(Nc2ccncc2)c(=O)c1=O)c1ccccc1 (configuration not stated) | > 50 µM
NC(=O)C(Nc1c(Nc2ccncc2)c(=O)c1=O)c1cccc(O)c1 (configuration not stated) | > 50 µM
C[C@@H](Nc1c(Nc2ccnc(-c3ccccc3F)c2)c(=O)c1=O)c1ccccc1 | > 50 µM
C[C@@H](Nc1c(Nc2ccnc(-c3ccsc3)c2)c(=O)c1=O)c1ccccc1 | > 50 µM
C[C@@H](Nc1c(Nc2ccnc(-c3ccco3)c2)c(=O)c1=O)c1ccccc1 | > 50 µM
C[C@@H](Nc1c(Nc2ccncc2)c(=O)c1=O)c1ccccc1 | > 50 µM

Molecular target: Mitogen-activated protein kinase 14 (Homo sapiens, UniProt Q16539)
Test: Inhibition of p38alpha

Chain of Mitogen-activated protein kinase 14 (Q16539 whole entry): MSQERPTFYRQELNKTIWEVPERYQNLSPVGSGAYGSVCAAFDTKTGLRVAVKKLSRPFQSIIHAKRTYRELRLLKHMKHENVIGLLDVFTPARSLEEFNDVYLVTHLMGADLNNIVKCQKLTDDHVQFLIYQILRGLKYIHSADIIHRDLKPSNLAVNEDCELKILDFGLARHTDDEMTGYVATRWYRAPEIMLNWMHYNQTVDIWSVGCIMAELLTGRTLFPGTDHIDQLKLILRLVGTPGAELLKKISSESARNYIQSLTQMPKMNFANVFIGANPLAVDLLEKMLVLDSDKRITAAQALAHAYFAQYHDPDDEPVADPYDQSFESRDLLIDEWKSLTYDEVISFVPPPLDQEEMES

SMILES | IC50
NC(=O)C(Nc1c(Nc2ccncc2)c(=O)c1=O)c1ccccc1 (configuration not stated) | > 50 µM
NC(=O)C(Nc1c(Nc2ccncc2)c(=O)c1=O)c1cccc(O)c1 (configuration not stated) | > 50 µM
C[C@@H](Nc1c(Nc2ccnc(-c3ccccc3F)c2)c(=O)c1=O)c1ccccc1 | 21.7 µM
C[C@@H](Nc1c(Nc2ccnc(-c3ccsc3)c2)c(=O)c1=O)c1ccccc1 | > 50 µM
C[C@@H](Nc1c(Nc2ccnc(-c3ccco3)c2)c(=O)c1=O)c1ccccc1 | > 50 µM
C[C@@H](Nc1c(Nc2ccncc2)c(=O)c1=O)c1ccccc1 | > 50 µM

Molecular target: Platelet-derived growth factor receptor alpha (Homo sapiens, UniProt P16234)
Test: Inhibition of PDGFRalpha

Chain of Platelet-derived growth factor receptor alpha (P16234 whole entry): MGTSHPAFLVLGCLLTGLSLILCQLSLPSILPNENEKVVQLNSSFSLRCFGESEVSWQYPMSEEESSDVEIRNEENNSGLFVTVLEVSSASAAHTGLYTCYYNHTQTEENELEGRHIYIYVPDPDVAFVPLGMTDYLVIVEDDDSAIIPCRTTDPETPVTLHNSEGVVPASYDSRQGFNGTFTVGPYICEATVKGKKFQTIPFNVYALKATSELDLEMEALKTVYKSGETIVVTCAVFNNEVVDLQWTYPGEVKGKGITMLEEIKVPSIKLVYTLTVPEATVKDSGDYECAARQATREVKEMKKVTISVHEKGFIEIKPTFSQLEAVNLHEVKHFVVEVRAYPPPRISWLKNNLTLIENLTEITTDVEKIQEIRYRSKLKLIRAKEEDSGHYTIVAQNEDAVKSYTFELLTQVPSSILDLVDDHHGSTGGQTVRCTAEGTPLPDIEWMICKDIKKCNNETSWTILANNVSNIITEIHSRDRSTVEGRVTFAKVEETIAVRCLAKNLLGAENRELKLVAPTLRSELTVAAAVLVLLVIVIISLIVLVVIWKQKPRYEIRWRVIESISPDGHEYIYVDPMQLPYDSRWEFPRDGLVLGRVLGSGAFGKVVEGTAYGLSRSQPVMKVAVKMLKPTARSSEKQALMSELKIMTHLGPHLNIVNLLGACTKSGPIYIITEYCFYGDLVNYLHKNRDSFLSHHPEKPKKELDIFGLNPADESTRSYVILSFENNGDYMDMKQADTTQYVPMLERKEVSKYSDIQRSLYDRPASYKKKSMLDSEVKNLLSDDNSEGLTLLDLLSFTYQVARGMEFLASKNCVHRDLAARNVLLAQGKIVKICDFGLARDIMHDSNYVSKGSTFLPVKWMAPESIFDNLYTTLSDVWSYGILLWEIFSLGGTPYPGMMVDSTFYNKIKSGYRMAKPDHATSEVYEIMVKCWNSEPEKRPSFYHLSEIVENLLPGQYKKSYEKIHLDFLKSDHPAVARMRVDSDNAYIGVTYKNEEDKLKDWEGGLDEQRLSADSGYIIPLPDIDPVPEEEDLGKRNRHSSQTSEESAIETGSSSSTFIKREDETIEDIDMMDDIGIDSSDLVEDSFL

SMILES | IC50
NC(=O)C(Nc1c(Nc2ccncc2)c(=O)c1=O)c1ccccc1 (configuration not stated) | 44 µM
NC(=O)C(Nc1c(Nc2ccncc2)c(=O)c1=O)c1cccc(O)c1 (configuration not stated) | 11.1 µM
C[C@@H](Nc1c(Nc2ccnc(-c3ccccc3F)c2)c(=O)c1=O)c1ccccc1 | > 50 µM
C[C@@H](Nc1c(Nc2ccnc(-c3ccsc3)c2)c(=O)c1=O)c1ccccc1 | 36.2 µM
C[C@@H](Nc1c(Nc2ccnc(-c3ccco3)c2)c(=O)c1=O)c1ccccc1 | 27.1 µM
C[C@@H](Nc1c(Nc2ccncc2)c(=O)c1=O)c1ccccc1 | 40.5 µM

Molecular target: Protein kinase C alpha type (Homo sapiens, UniProt P17252)
Test: Inhibition of PKCalpha

SMILES | IC50
NC(=O)C(Nc1c(Nc2ccncc2)c(=O)c1=O)c1cccc(O)c1 (configuration not stated) | 33.6 µM
C[C@@H](Nc1c(Nc2ccnc(-c3ccccc3F)c2)c(=O)c1=O)c1ccccc1 | > 50 µM
C[C@@H](Nc1c(Nc2ccnc(-c3ccsc3)c2)c(=O)c1=O)c1ccccc1 | > 50 µM
C[C@@H](Nc1c(Nc2ccnc(-c3ccco3)c2)c(=O)c1=O)c1ccccc1 | > 50 µM
C[C@@H](Nc1c(Nc2ccncc2)c(=O)c1=O)c1ccccc1 | > 50 µM

Molecular target: Rho-associated protein kinase 1 (Homo sapiens, UniProt Q13464)
Test: Inhibition of ROCK1

SMILES | IC50
NC(=O)C(Nc1c(Nc2ccncc2)c(=O)c1=O)c1cccc(O)c1 (configuration not stated) | 0.06 µM
C[C@@H](Nc1c(Nc2ccnc(-c3ccccc3F)c2)c(=O)c1=O)c1ccccc1 | > 50 µM
C[C@@H](Nc1c(Nc2ccnc(-c3ccsc3)c2)c(=O)c1=O)c1ccccc1 | > 50 µM
C[C@@H](Nc1c(Nc2ccnc(-c3ccco3)c2)c(=O)c1=O)c1ccccc1 | > 50 µM

Molecular target: Ribosomal protein S6 kinase alpha-1 (Homo sapiens, UniProt Q15418)
Test: Inhibition of RSK1

SMILES | IC50
NC(=O)C(Nc1c(Nc2ccncc2)c(=O)c1=O)c1ccccc1 (configuration not stated) | 0.78 µM
NC(=O)C(Nc1c(Nc2ccncc2)c(=O)c1=O)c1cccc(O)c1 (configuration not stated) | 0.29 µM
C[C@@H](Nc1c(Nc2ccnc(-c3ccccc3F)c2)c(=O)c1=O)c1ccccc1 | > 50 µM
C[C@@H](Nc1c(Nc2ccnc(-c3ccsc3)c2)c(=O)c1=O)c1ccccc1 | > 50 µM
C[C@@H](Nc1c(Nc2ccnc(-c3ccco3)c2)c(=O)c1=O)c1ccccc1 | > 50 µM
C[C@@H](Nc1c(Nc2ccncc2)c(=O)c1=O)c1ccccc1 | 0.81 µM

Molecular target: Proto-oncogene tyrosine-protein kinase Src (Homo sapiens, UniProt P12931)
Test: Inhibition of SRC

Chain of Proto-oncogene tyrosine-protein kinase Src (P12931 2-536 limits assumed): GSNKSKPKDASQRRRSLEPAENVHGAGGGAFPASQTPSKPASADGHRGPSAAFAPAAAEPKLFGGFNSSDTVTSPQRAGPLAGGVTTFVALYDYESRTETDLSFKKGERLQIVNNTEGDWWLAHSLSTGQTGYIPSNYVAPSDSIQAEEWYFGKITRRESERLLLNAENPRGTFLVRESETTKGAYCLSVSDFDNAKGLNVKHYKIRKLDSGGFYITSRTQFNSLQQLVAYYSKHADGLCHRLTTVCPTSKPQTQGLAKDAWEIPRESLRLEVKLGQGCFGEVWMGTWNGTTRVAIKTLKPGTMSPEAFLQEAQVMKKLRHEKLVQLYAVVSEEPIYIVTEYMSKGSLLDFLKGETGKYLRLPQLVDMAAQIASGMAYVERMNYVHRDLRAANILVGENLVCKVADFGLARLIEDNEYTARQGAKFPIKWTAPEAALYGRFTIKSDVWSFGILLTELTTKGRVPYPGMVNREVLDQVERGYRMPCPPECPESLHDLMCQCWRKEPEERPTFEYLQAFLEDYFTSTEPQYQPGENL

SMILES | IC50
NC(=O)C(Nc1c(Nc2ccncc2)c(=O)c1=O)c1ccccc1 (configuration not stated) | > 50 µM
NC(=O)C(Nc1c(Nc2ccncc2)c(=O)c1=O)c1cccc(O)c1 (configuration not stated) | > 50 µM
C[C@@H](Nc1c(Nc2ccnc(-c3ccccc3F)c2)c(=O)c1=O)c1ccccc1 | > 50 µM
C[C@@H](Nc1c(Nc2ccnc(-c3ccsc3)c2)c(=O)c1=O)c1ccccc1 | > 50 µM
C[C@@H](Nc1c(Nc2ccnc(-c3ccco3)c2)c(=O)c1=O)c1ccccc1 | > 50 µM
C[C@@H](Nc1c(Nc2ccncc2)c(=O)c1=O)c1ccccc1 | > 50 µM

Molecular target: MAP kinase-activated protein kinase 2 (Homo sapiens, UniProt P49137)
Description: Inhibition of human recombinant MK2

SMILES | IC50
C[C@@H](Nc1c(Nc2cccnc2)c(=O)c1=O)c1ccccc1 | > 100 µM
C[C@@H](Nc1c(Nc2ccncn2)c(=O)c1=O)c1ccccc1 | > 100 µM
NC(=O)C(Nc1c(Nc2ccncc2)c(=O)c1=O)c1ccccc1 (configuration not stated) | 4.5 µM
NC(=O)C(Nc1c(Nc2ccncc2)c(=O)c1=O)c1cccc(O)c1 (configuration not stated) | 0.39 µM
C[C@@H](Nc1c(Nc2ccnc(-c3ccccc3F)c2)c(=O)c1=O)c1ccccc1 | 5.8 µM
C[C@@H](Nc1c(Nc2ccnc(-c3ccsc3)c2)c(=O)c1=O)c1ccccc1 | 5.4 µM
C[C@H](c1ccccc1)N(C)c1c(Nc2ccncc2)c(=O)c1=O | > 100 µM
C[C@@H](Nc1c(N(C)c2ccncc2)c(=O)c1=O)c1ccccc1 | > 100 µM
C[C@@H](Nc1c(Nc2ccn[nH]2)c(=O)c1=O)c1ccccc1 | > 100 µM
C[C@@H](Nc1c(Nc2ccnc(Cl)c2)c(=O)c1=O)c1ccccc1 | > 100 µM
C[C@@H](Nc1c(Nc2ccnc(-c3ccco3)c2)c(=O)c1=O)c1ccccc1 | 5.3 µM
